The results in this text go back to PubChem BioAssay AID1259407 (Chemical Carcinogenesis Research Information System (CCRIS), 2018).

Activity calls are given as the source filed them. How the calls were made is not given here.

The series has as its system CCRIS mutagenicity, Ames/micronucleus/aberration tests. Nature of the series: CCRIS mutagenicity studies.

As for `C/C=N/O`, the mutagenic call is, setting by setting: (Test System: AMES SALMONELLA TYPHIMURIUM, Strain/Indicator: TA98, Metabolic Activation: HAMSTER, LIVER, S-9, AROCLOR 1254, Method: STANDARD PLATE) “inactive; negative”; (Test System: AMES SALMONELLA TYPHIMURIUM, Strain/Indicator: TA98, Metabolic Activation: NONE, Method: STANDARD PLATE) “inactive; negative”; (Test System: AMES SALMONELLA TYPHIMURIUM, Strain/Indicator: TA98, Metabolic Activation: RAT, LIVER, S-9, AROCLOR 1254, Method: STANDARD PLATE) “inactive; negative”; (Test System: AMES SALMONELLA TYPHIMURIUM, Strain/Indicator: TA100, Metabolic Activation: HAMSTER, LIVER, S-9, AROCLOR 1254, Method: STANDARD PLATE) “inactive; negative”; (Test System: AMES SALMONELLA TYPHIMURIUM, Strain/Indicator: TA100, Metabolic Activation: NONE, Method: STANDARD PLATE) “inactive; negative”; (Test System: AMES SALMONELLA TYPHIMURIUM, Strain/Indicator: TA100, Metabolic Activation: RAT, LIVER, S-9, AROCLOR 1254, Method: STANDARD PLATE) “inactive; negative”. For the same molecule, the mutagenic call reads like this: (Test System: AMES SALMONELLA TYPHIMURIUM, Strain/Indicator: TA102, Metabolic Activation: RAT, LIVER, S-9, PHENOBARBITAL AND 5,6-BENZOFLAVONE, Method: STANDARD PLATE) “inactive; negative”; (Test System: AMES SALMONELLA TYPHIMURIUM, Strain/Indicator: TA1535, Metabolic Activation: HAMSTER, LIVER, S-9, AROCLOR 1254, Method: STANDARD PLATE) “inactive; negative”; (Test System: AMES SALMONELLA TYPHIMURIUM, Strain/Indicator: TA1535, Metabolic Activation: NONE, Method: STANDARD PLATE) “inactive; negative”; (Test System: AMES SALMONELLA TYPHIMURIUM, Strain/Indicator: TA1535, Metabolic Activation: RAT, LIVER, S-9, AROCLOR 1254, Method: STANDARD PLATE) “inactive; negative”; (Test System: AMES SALMONELLA TYPHIMURIUM, Strain/Indicator: TA1537, Metabolic Activation: HAMSTER, LIVER, S-9, AROCLOR 1254, Method: STANDARD PLATE) “inactive; negative”; (Test System: AMES SALMONELLA TYPHIMURIUM, Strain/Indicator: TA1537, Metabolic Activation: NONE, Method: STANDARD PLATE) “inactive; negative”. For the same molecule, the mutagenic call runs as follows: (Test System: AMES SALMONELLA TYPHIMURIUM, Strain/Indicator: TA1537, Metabolic Activation: RAT, LIVER, S-9, AROCLOR 1254, Method: STANDARD PLATE) “inactive; negative”; (Test System: AMES SALMONELLA TYPHIMURIUM, Strain/Indicator: TA1538, Metabolic Activation: HAMSTER, LIVER, S-9, AROCLOR 1254, Method: STANDARD PLATE) “inactive; negative”; (Test System: AMES SALMONELLA TYPHIMURIUM, Strain/Indicator: TA1538, Metabolic Activation: NONE, Method: STANDARD PLATE) “inactive; negative”; (Test System: AMES SALMONELLA TYPHIMURIUM, Strain/Indicator: TA1538, Metabolic Activation: RAT, LIVER, S-9, AROCLOR 1254, Method: STANDARD PLATE) “inactive; negative”; (Test System: AMES SALMONELLA TYPHIMURIUM, Strain/Indicator: TA2638, Metabolic Activation: RAT, LIVER, S-9, PHENOBARBITAL AND 5,6-BENZOFLAVONE, Method: STANDARD PLATE) “inactive; negative”; (Test System: E. COLI, Strain/Indicator: WP2 (PKM101), Metabolic Activation: RAT, LIVER, S-9, PHENOBARBITAL AND 5,6-BENZOFLAVONE, Method: STANDARD PLATE) “inactive; negative”. The mutagenic call was “inactive; negative” (Test System: E. COLI, Strain/Indicator: WP2 UVRA (PKM101), Metabolic Activation: RAT, LIVER, S-9, PHENOBARBITAL AND 5,6-BENZOFLAVONE, Method: STANDARD PLATE); “active; positive. reevaluation of results: inconclusive” (Test System: MOUSE LYMPHOMA, Strain/Indicator: L5178Y (TK+/TK-), Metabolic Activation: RAT, LIVER, S-9, AROCLOR 1254, Method: SUSPENSION/PLATE); “inactive; negative” (Test System: Mouse lymphoma, Strain/Indicator: L5178Y (tk+tk-), Metabolic Activation: None, Method: Suspension/plate); “active; inconclusive (previously evaluated positive)” (Test System: Mouse lymphoma, Strain/Indicator: L5178Y (tk+tk-), Metabolic Activation: Rat, Liver, S-9, Aroclor 1254, Method: Suspension/plate).
